Source: publication PMC5071162 (ACS chemical neuroscience, 2016)
pEC50: −log10 of the molar value. Read-outs that look alike come from different tables or passages of the source.

Molecular target: human GPR88 (Homo sapiens, UniProt Q9GZN0)
Experiment: Lance cAMP assay using stable PPLS-HA-GPR88 CHO cells
Type: cell-based
Details: for agonist activity in words: qualitative SAR statement, Lance cAMP assay; for EC50: EC50 (nM)

Chain of human GPR88 (Q9GZN0 whole entry): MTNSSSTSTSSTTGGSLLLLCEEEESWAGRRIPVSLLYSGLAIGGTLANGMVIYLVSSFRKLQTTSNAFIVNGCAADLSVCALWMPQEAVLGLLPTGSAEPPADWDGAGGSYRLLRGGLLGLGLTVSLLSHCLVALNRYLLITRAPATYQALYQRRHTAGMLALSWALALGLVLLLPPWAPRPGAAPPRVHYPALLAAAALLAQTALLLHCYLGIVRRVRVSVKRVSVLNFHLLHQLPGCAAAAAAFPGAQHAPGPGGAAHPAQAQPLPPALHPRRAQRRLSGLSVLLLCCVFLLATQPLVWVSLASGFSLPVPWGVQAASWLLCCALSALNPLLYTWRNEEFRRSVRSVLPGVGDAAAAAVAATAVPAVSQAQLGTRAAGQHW

Molecule	pEC50 (EC50)	also measured
CC[C@H](C)[C@H](N)CN(C(=O)[C@@H]1C[C@H]1c1ccccn1)c1ccc(-c2ccc(C(C)=O)cc2)cc1 (relative stereo) [5t, (1R*,2R*)-2-(Pyridin-2-yl)cyclopropanecarboxylic Acid [(2S,3S)-2-Amino-3-methylpentyl]-(4′-acetylbiphenyl-4-yl)amide]	6.45	
CC[C@H](C)[C@H](N)CN(C(=O)[C@@H]1C[C@H]1c1ccccn1)c1ccc(-c2ccc(Cl)cc2)cc1 (relative stereo) [5q, (1R*,2R*)-2-(Pyridin-2-yl)cyclopropanecarboxylic Acid [(2S,3S)-2-Amino-3-methylpentyl]-(4′-chlorobiphenyl-4-yl)amide]	6.67	
(1R*,2R*)-2-(Pyridin-2-yl)cyclopropanecarboxylic Acid [(2S,3S)-2-Amino-3-methylpentyl]-(4′-phenethylphenyl-4-yl)amide [4g]		agonist activity in words: deteriorated activity
CC[C@H](C)[C@H](N)CN(C(=O)[C@@H]1C[C@H]1c1ccccn1)c1ccc(-c2ccc3c(c2)OCO3)cc1 (relative stereo) [5o, (1R*,2R*)-2-(Pyridin-2-yl)cyclopropanecarboxylic Acid [(2S,3S)-2-Amino-3-methylpentyl]-(3′,4′-methylenedioxybiphenyl-4-yl)amide]	6.69	EC50: 204 nM
CC[C@H](C)[C@H](N)CN(C(=O)[C@@H]1C[C@H]1c1ccccn1)c1ccc(-c2ccc(C#N)cc2)cc1 (relative stereo) [5r, (1R*,2R*)-2-(Pyridin-2-yl)cyclopropanecarboxylic Acid [(2S,3S)-2-Amino-3-methylpentyl]-(4′-cyanobiphenyl-4-yl)amide]	6.71	
CC[C@H](C)[C@H](N)CN(C(=O)[C@@H]1C[C@H]1c1ccccn1)c1ccc(-c2ccc(OC(F)(F)F)cc2)cc1 (relative stereo) [5k, (1R*,2R*)-2-(Pyridin-2-yl)cyclopropanecarboxylic Acid [(2S,3S)-2-Amino-3-methylpentyl]-(4′-trifluoromethoxybiphenyl-4-yl)amide]	6.86	
CCCCCCc1ccc(-c2ccc(N(C[C@@H](N)[C@@H](C)CC)C(=O)[C@@H]3C[C@H]3c3ccccn3)cc2)cc1 (relative stereo) [5g, (1R*,2R*)-2-(Pyridin-2-yl)cyclopropanecarboxylic Acid [(2S,3S)-2-Amino-3-methylpentyl]-(4′-hexylbiphenyl-4-yl)amide]	6.87	
CCOC(=O)c1ccc(-c2ccc(N(C[C@@H](N)[C@@H](C)CC)C(=O)[C@@H]3C[C@H]3c3ccccn3)cc2)cc1 (relative stereo) [5u, (1R*,2R*)-2-(Pyridin-2-yl)cyclopropanecarboxylic Acid [(2S,3S)-2-Amino-3-methylpentyl]-(4′-ethoxycarbonylbiphenyl-4-yl)amide]	6.59	
CC[C@H](C)[C@H](N)CN(C(=O)[C@@H]1C[C@H]1c1ccccn1)c1ccc(-c2ccc(N)cc2)cc1 (relative stereo) [5w, (1R*,2R*)-2-(Pyridin-2-yl)cyclopropanecarboxylic Acid [(2S,3S)-2-Amino-3-methylpentyl]-(4′-aminobiphenyl-4-yl)amide]	5.95	agonist activity in words: significant decrease in activity
CC[C@H](C)[C@H](N)CN(C(=O)[C@@H]1C[C@H]1c1ccccn1)c1ccc(-c2ccc(C(C)C)cc2)cc1 (relative stereo) [5d, (1R*,2R*)-2-(Pyridin-2-yl)cyclopropanecarboxylic Acid [(2S,3S)-2-Amino-3-methylpentyl]-(4′-isopropylbiphenyl-4-yl)amide]	6.59	
CC[C@H](C)[C@H](N)CN(C(=O)[C@@H]1C[C@H]1c1ccccn1)c1ccc(-c2ccc(C3CCCCC3)cc2)cc1 (relative stereo) [5h, (1R*,2R*)-2-(Pyridin-2-yl)cyclopropanecarboxylic Acid [(2S,3S)-2-Amino-3-methylpentyl]-(4′-cyclohexylbiphenyl-4-yl)amide]	6.75	pEC50 (pEC50): 6.76
CC[C@H](C)[C@H](N)CN(C(=O)[C@@H]1C[C@H]1c1ccccn1)c1ccc(-c2ccc(CC(C)C)cc2)cc1 (relative stereo) [5e, (1R*,2R*)-2-(Pyridin-2-yl)cyclopropanecarboxylic Acid [(2S,3S)-2-Amino-3-methylpentyl]-(4′-isobutylbiphenyl-4-yl)amide]	6.57	
CC[C@H](C)[C@H](N)CN(C(=O)[C@@H]1C[C@H]1c1ccccn1)c1ccc(-c2ccc(O)cc2)cc1 (relative stereo) [5v, (1R*,2R*)-2-(Pyridin-2-yl)cyclopropanecarboxylic Acid [(2S,3S)-2-Amino-3-methylpentyl]-(4′-hydroxybiphenyl-4-yl)amide]	5.54	agonist activity in words: significant decrease in activity
CC[C@H](C)[C@H](N)CN(C(=O)[C@@H]1C[C@H]1c1ccccn1)c1ccc(-c2ccccc2)cc1 (relative stereo) [4d, (1R*,2R*)-2-(Pyridin-2-yl)cyclopropanecarboxylic Acid [(2S,3S)-2-Amino-3-methylpentyl]-(biphenyl-4-yl)amide]		pEC50: 6.55
CC[C@H](C)[C@H](N)CN(C(=O)[C@@H]1C[C@H]1c1ccccn1)c1ccc(-c2ccc([N+](=O)[O-])cc2)cc1 (relative stereo) [5s, (1R*,2R*)-2-(Pyridin-2-yl)cyclopropanecarboxylic Acid [(2S,3S)-2-Amino-3-methylpentyl]-(4′-nitrobiphenyl-4-yl)amide]	6.56	
CC[C@H](C)[C@H](N)CN(C(=O)[C@@H]1C[C@H]1c1ccccn1)c1ccc(-c2ccc(N(C)C)cc2)cc1 (relative stereo) [5x, (1R*,2R*)-2-(Pyridin-2-yl)cyclopropanecarboxylic Acid [(2S,3S)-2-Amino-3-methylpentyl]-[4′-(dimethylamino)biphenyl-4-yl]amide]	6.53	
CC[C@H](C)[C@H](N)CN(C(=O)[C@@H]1C[C@H]1c1ccccn1)c1ccc(-c2ccc(C(C)(C)C)cc2)cc1 (relative stereo) [5f, (1R*,2R*)-2-(Pyridin-2-yl)cyclopropanecarboxylic Acid [(2S,3S)-2-Amino-3-methylpentyl]-(4′-tert-butylbiphenyl-4-yl)amide]	6.29	
CC[C@H](C)[C@H](N)CN(C(=O)[C@@H]1C[C@H]1c1ccccn1)c1ccc(-c2ccc(C)cc2)cc1 (relative stereo) [5a, (1R*,2R*)-2-(Pyridin-2-yl)cyclopropanecarboxylic Acid [(2S,3S)-2-Amino-3-methylpentyl]-(4′-methylbiphenyl-4-yl)amide]	6.98	EC50: 104 nM
CCOc1ccc(-c2ccc(N(C[C@@H](N)[C@@H](C)CC)C(=O)[C@@H]3C[C@H]3c3ccccn3)cc2)cc1 (relative stereo) [5l, (1R*,2R*)-2-(Pyridin-2-yl)cyclopropanecarboxylic Acid [(2S,3S)-2-Amino-3-methylpentyl]-(4′-ethoxybiphenyl-4-yl)amide]	7.09	EC50: 82 nM
CC[C@H](C)[C@H](N)CN(C(=O)[C@@H]1C[C@H]1c1ccccn1)c1ccc(-c2ccc(NC(C)=O)cc2)cc1 (relative stereo) [5y, (1R*,2R*)-2-(Pyridin-2-yl)cyclopropanecarboxylic Acid [(2S,3S)-2-Amino-3-methylpentyl]-(4′-acetamidobiphenyl-4-yl)amide]		agonist activity in words: least activity in the series
CC[C@H](C)[C@H](N)CN(C(=O)[C@@H]1C[C@H]1c1ccccn1)c1ccc(-c2ccc(C(=O)N(C)C)cc2)cc1 (relative stereo) [5aa, (1R*,2R*)-2-(Pyridin-2-yl)cyclopropanecarboxylic Acid [(2S,3S)-2-Amino-3-methylpentyl]-[4′-(dimethylcarbamoyl)biphenyl-4-yl]-amide]	5.48	agonist activity in words: least activity in the series
CC[C@H](C)[C@H](N)CN(C(=O)[C@@H]1C[C@H]1c1ccccn1)c1ccc(-c2ccc(OC)c(OC)c2)cc1 (relative stereo) [5n, (1R*,2R*)-2-(Pyridin-2-yl)cyclopropanecarboxylic Acid [(2S,3S)-2-Amino-3-methylpentyl]-(3′,4′-dimethoxybiphenyl-4-yl)amide]	6.04	fold loss of activity: approximately 10 fold
(1R*,2R*)-2-(Pyridin-2-yl)cyclopropanecarboxylic Acid [(2S,3S)-2-Amino-3-methylpentyl]-(4′-phenoxyphenyl-4-yl)amide [4e]		agonist activity in words: deteriorated activity
CC[C@H](C)[C@H](N)CN(C(=O)[C@@H]1C[C@H]1c1ccccn1)c1ccc(-c2ccc(C(N)=O)cc2)cc1 (relative stereo) [5z, (1R*,2R*)-2-(Pyridin-2-yl)cyclopropanecarboxylic Acid [(2S,3S)-2-Amino-3-methylpentyl]-(4′-carbamoylbiphenyl-4-yl)amide]		agonist activity in words: least activity in the series
CC[C@H](C)[C@H](N)CN(C(=O)[C@@H]1C[C@H]1c1ccccn1)c1ccc(-c2ccc(OC(C)C)cc2)cc1 (relative stereo) [5m, (1R*,2R*)-2-(Pyridin-2-yl)cyclopropanecarboxylic Acid [(2S,3S)-2-Amino-3-methylpentyl]-(4′-isopropoxybiphenyl-4-yl)amide]		pEC50: 7.11
CC[C@H](C)[C@H](N)CN(C(=O)[C@@H]1C[C@H]1c1ccccn1)c1ccc(-c2ccc(-c3ccccc3)cc2)cc1 (relative stereo) [5i, (1R*,2R*)-2-(Pyridin-2-yl)cyclopropanecarboxylic Acid [(2S,3S)-2-Amino-3-methylpentyl]-(4′-phenylbiphenyl-4-yl)amide]	6.54	
CCc1ccc(-c2ccc(N(C[C@@H](N)[C@@H](C)CC)C(=O)[C@@H]3C[C@H]3c3ccccn3)cc2)cc1 (relative stereo) [5c, (1R*,2R*)-2-(Pyridin-2-yl)cyclopropanecarboxylic Acid [(2S,3S)-2-Amino-3-methylpentyl]-(4′-ethylbiphenyl-4-yl)amide]	7.07	EC50: 85 nM
(1R*,2R*)-2-(Pyridin-2-yl)cyclopropanecarboxylic Acid [(2S,3S)-2-Amino-3-methylpentyl]-(4′-benzylphenyl-4-yl)amide [4f]		agonist activity in words: deteriorated activity
